Experimental data published in ChEMBL document CHEMBL1159231, “Cyathocaline, an Azafluorenone Alkaloid from Cyathocalyx zeylanica” (J Nat Prod, 1995).
The source made the active and inactive calls. The rule behind the calls is not given here.

What was measured:
Saccharomyces cerevisiae [1] = experiment: DNA damaging activity against DNA repair rad 52Y gene-deficient yeast RS 322YK mutant assessed as drug level required to produce 12 mm zone of inhibition; format: functional
Saccharomyces cerevisiae [2] = experiment: DNA damaging activity against DNA repair-deficient yeast RS 321N mutant assessed as drug level required to produce 12 mm zone of inhibition; format: functional
Saccharomyces cerevisiae [3] = experiment: DNA damaging activity against wild type DNA repair-proficient yeast RS 188N (RAD+) assessed as drug level required to produce 12 mm zone of inhibition; format: functional
A549 = experiment: Cytotoxicity against human A549 cells; format: functional, cell-based
Saccharomyces cerevisiae [4] = experiment: DNA damaging activity against DNA repair rad6 gene-deficient yeast RS 167N mutant; format: functional, organism-based

COc1c(O)cc2c(c1O)-c1nccc(C)c1C2=O [CYATHOCALINE]
IC12 (Saccharomyces cerevisiae [1]): 90 µg/mL | IC12 (Saccharomyces cerevisiae [2]): 87 µg/mL | IC12 (Saccharomyces cerevisiae [3]): > 400 µg/mL | IC50 (A549): 8.5 µM | Activity (Saccharomyces cerevisiae [4]): inactive
